Source: US20250341026A1, “METHODS AND MEANS FOR PREPARING A LIBRARY FOR SEQUENCING” (Illumina, Inc., priority 2018, published 2025)

Experiments:
mtDNA [1] = assay: DAPI staining of samples; type: binding
Description: In addition to performing transposition and ATAC-seq, the samples were also stained. […] DAPI stained DNA, but not at certain locations.

mtDNA [2] = assay: ATAC-seq reads mapped to mtDNA after contacting the sample with dye; type: biochemical; conditions: for Effect on mitochondrial DNA reads: ATAC-seq, increasing dye concentrations (FIGS. 2A-2C); for % Mapped to mtDNA: transposition and ATAC-seq
Protocol: (§1) A sample was obtained having both nuclear DNA and mtDNA. The sample was separated into various aliquots, and each aliquot was contacted with Hoechst 33258 dye in various concentrations, including 8 μM, 80 μM, and 800 μM. Each aliquot was then subjected to transposition and ATAC-seq, and the DNA reads were analyzed.
(§2) As shown in FIGS. 2A-2C, Hoechst dye selectively stained mtDNA, preventing transposition into mtDNA, but allowing transposition of nuclear DNA. […] The methods and compositions may be used for bulk ATAC-seq or single cell ATAC-seq to inhibit, reduce, or eliminate undesired mtDNA sequencing reads.

gDNA (nuclear) = assay: ATAC-seq reads mapped to nuclear gDNA after contacting the sample with dye; type: biochemical; conditions: transposition and ATAC-seq
Protocol: as §1, §2

nucleosome positioning = assay: ATAC-seq profiles (nucleosome positioning) with dyes compared to no dye control; type: biochemical; conditions: FIG. 4; compared to the no dye control
Protocol: A sample was obtained having both nuclear DNA and mtDNA. The sample was separated into various aliquots, and each aliquot was contacted with a different dye in various concentrations. Five different dyes were used, including Hoechst (at concentrations of 50 μM, 25 μM, 12 μM, 6 μM, 3 μM, and 0.6 μM), SYBR Gold (at concentrations of 500 μM, 50 μM, 5 μM, 0.5 μM, and 0.1 μM), Sytox Orange (at concentrations of 500 μM, 50 μM, 5 μM, 0.5 μM, and 0.1 μM), PicoGreen (at concentrations of 100 μM, 10 μM, 1 μM, 0.1 μM, and 0.02 μM), and Qubit (at concentrations of 100 μM, 10 μM, 1 μM, 0.1 μM, and 0.02 μM), as shown in FIGS. 3A-3C. Another aliquot was prepared that was not exposed to any dye. Each aliquot was then subjected Nextera transposition and products were visualized on a gel. FIG. 3A depicts the gel for Hoechst and SYBR Gold. FIG. 3B depicts the gel for Sytox Orange and PicoGreen, and FIG. 3C depicts the gel for Qubit and no dye. High molecular weight DNA products are indicative of inefficient transposition.
Hoechst allows relatively unbiased ATAC-seq profiling while not changing nucleosome positioning.

[3] = Concentration of Hoechst 800 μM

Row | SMILES | Staining of mtDNA versus actively transcribed regions of nuclear DNA (mtDNA [1]) | Effect on mitochondrial DNA reads (mtDNA [2]) | Effect on mitochondrial DNA reads (mtDNA [2]; listed as Hoechst dye) | % Mapped to mtDNA (mtDNA [2]; Concentration of Hoechst 8 μM) [%] | % Mapped to mtDNA (mtDNA [2]; Concentration of Hoechst 80 μM) [%] | % Mapped to mtDNA (mtDNA [2]; [3]) [%] | % Mapped to gDNA (nuclear) (gDNA (nuclear); Concentration of Hoechst 8 μM) [%] | % Mapped to gDNA (nuclear) (gDNA (nuclear); Concentration of Hoechst 80 μM) [%] | % Mapped to gDNA (nuclear) (gDNA (nuclear); [3]) [%] | Effect on ATAC-seq profiles (nucleosome positioning) (nucleosome positioning)
1 | N=C(N)c1ccc(-c2cc3ccc(C(=N)N)cc3[nH]2)cc1 [DAPI, 4′, 6-diamidino-2-phenylindole] | staining of mtDNA took place but not of actively transcribed (ATAC) regions of nuclear DNA | – | – | – | – | – | – | – | – | –
2 | CN1CCN(c2ccc3[nH]c(-c4ccc5[nH]c(-c6ccc(O)cc6)nc5c4)nc3c2)CC1 [Hoechst, Hoechst 33258] | – | reduces mitochondrial DNA reads | decreasing mtDNA reads | 32 | 11 | 0 | 68 | 89 | 100 | does not alter the ATAC-seq profiles
